Experimental data: ChEMBL document CHEMBL5725778, “Condensed ring derivative, and preparation method, intermediate, pharmaceutical composition and use thereof” (2018)

Target: T1, Solute carrier family 22 member 12 (Homo sapiens, UniProt Q96S37)
T1 sequence (Q96S37 whole entry): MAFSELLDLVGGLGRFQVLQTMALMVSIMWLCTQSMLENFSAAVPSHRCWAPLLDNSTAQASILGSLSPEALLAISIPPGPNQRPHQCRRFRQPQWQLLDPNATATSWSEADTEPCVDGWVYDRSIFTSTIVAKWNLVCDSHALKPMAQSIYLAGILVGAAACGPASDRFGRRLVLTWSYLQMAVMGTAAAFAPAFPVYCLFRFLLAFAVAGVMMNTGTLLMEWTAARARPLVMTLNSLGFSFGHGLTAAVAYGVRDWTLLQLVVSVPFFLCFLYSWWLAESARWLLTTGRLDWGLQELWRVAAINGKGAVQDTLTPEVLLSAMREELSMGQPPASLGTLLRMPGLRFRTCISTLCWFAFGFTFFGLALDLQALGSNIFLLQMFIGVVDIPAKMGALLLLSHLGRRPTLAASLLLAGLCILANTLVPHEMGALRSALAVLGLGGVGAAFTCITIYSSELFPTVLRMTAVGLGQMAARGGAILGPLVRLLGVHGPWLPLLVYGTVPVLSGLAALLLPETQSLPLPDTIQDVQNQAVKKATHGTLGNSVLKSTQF
Experiment: hURAT1 Inhibition Assay: Human embryonic kidney cells (HEK293) was incubated in DMEM tissue culture medium, at 37° C., under 5% CO2 and 95% air atmosphere. TransIT-293 transfection agent (MIRUS BIO, Cat. No. MIR2706) and model URAT1 were used to construct transfected HEK293 cells. Transfected HEK293/hURAT1 cells were used to the test for 14C-uric acid transport activity. HEK293/hURAT1 cells were seeded in a 96-well plate (BD, Cat. No. 356461) fully coating with poly-D-lysine at a density of 6×10^4 cells per well. Cells were incubated at 37° C. for at least 12 hrs in the calorstat, and then washed with pre-heated washing buffer (125 mM sodium gluconate, 10 mM HEPES pH=7.4) at an amount of 200 μL per well to wash out the culture medium. The uric acid [8-14C] (ARC, Cat. No. ARC0513-250UCI) containing or not containing the compound was added to 50 μL HBSS buffer which was free of chloric ion each well (HBSS buffer: 125 mM sodium gluconate, 4.8 mM potassium gluconate, 1.3 mM calcium gluconate, 1.2 mM potassium dihydrogen phosphate, 1.2 mM magnesium sulfate, 5.6 mM glucose, 25 mM HEPES pH=7.4) to make the specific concentration of the uric acid 1 μCi per well. The incubating solution was removed after 10 mins incubation, followed by adding 100 μL cold washing buffer, after washing with this buffer for 3 times, the buffer was completely removed from the well.

IC50 | SMILES
8 nM | CC(C)(Sc1ccc2cncc(-c3ccc(C#N)c4ccccc34)c2c1)C(=O)O
1860 nM | C[C@@H](CC(=O)O)c1cc2cncc(-c3ccc(C#N)cc3)c2s1
580 nM | C[C@H](CC(=O)O)c1cc2cncc(-c3ccc(C#N)c4ccccc34)c2s1
37 nM | C[C@@H](CC(=O)O)c1cc2c(-c3ccc(C#N)c4ccccc34)cncc2s1

The remaining lines, values behind:

SMILES | IC50
C[C@H](Oc1ccc2cncc(-c3ccc(C#N)cc3)c2c1)C(=O)O | 2690 nM
C[C@H](CC(=O)O)c1cc2cncc(-c3ccc(C#N)cc3)c2s1 | 38 nM
C[C@@H](CC(=O)O)c1cc2cncc(-c3ccc(C#N)c4ccccc34)c2s1 | 10 nM
C[C@@H](Oc1ccc2cncc(-c3ccc(C#N)cc3)c2c1)C(=O)O | 5520 nM
C[C@H](CC(=O)O)c1cc2c(-c3ccc(C#N)c4ccccc34)cncc2s1 | 11 nM
